Experiment [1] has as its target T1, human mAChR M1 (Homo sapiens, UniProt P11229).
T1 sequence (P11229 1-460): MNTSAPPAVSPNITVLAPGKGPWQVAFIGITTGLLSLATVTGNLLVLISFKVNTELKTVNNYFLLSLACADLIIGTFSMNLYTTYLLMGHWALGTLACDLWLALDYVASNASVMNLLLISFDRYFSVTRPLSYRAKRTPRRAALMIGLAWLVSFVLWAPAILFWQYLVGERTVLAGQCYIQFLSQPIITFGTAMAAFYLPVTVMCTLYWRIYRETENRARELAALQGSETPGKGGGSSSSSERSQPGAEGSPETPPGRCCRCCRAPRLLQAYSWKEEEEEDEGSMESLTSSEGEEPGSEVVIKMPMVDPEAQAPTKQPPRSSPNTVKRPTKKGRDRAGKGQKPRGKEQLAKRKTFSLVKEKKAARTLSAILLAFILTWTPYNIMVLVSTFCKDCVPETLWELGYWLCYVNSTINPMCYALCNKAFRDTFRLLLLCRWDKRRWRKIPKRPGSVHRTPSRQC
The experiment is described as follows: mAChR M1 cell-based functional assay (calcium mobilization), agonist mode: compound alone, Emax relative to acetylcholine maximum. The following applies: for EC50 / Agonist Activity Human M1 EC50: human mAChR M1; for Emax: relative to the maximum for acetylcholine. From the text: (§1) Chinese hamster ovary (CHO-K1) cells stably expressing rat (r)M1 were purchased from the American Type Culture Collection and cultured according to their indicated protocol. CHO cells stably expressing human (h)M2, hM3, and hM5 were described previously (Levey, et al., 1991); hM1 and hM4 cDNAs were purchased from Missouri S&T cDNA Resource; rM4 cDNA was provided by T. I. Bonner (National Institutes of Health, Bethesda, MD). rM2 and rM3 were cloned from a rat brain cDNA library and sequence verified. hM1, rM2, rM3, hM4, and rM4 cDNAs were used to stably transfect CHO-K1 cells purchased from the American Type Culture Collection using Lipofectamine2000. To make stable rM2, hM2, rM3, hM4, and rM4 cell lines for use in calcium mobilization assays, these cells also were stably transfected with a chimeric G-protein (Gqi5) (provided by B. R. Conklin, University of California, San Francisco) using Lipofectamine 2000. rM1, hM1, rM3, hM3, rM5, and hM5 cells were grown in Ham's F-12 medium containing 10% heat-inactivated fetal bovine serum (FBS), 20 mM HEPES, and 50 μg/mL G418 sulfate. rM2-Gqi5, hM2-Gqi5, and hM4-Gqi5 cells were grown in the same medium also containing 500 μg/mL Hygromycin B. Stable rM4-Gqi5 cells were grown in DMEM containing 10% heat-inactivated FBS, 20 mM HEPES, 400 μg/mL G418 sulfate, and 500 μg/mL Hygromycin B.
(§2) For high throughput measurement of agonist-evoked increases in intracellular calcium, CHO-K1 cells stably expressing muscarinic receptors were plated in growth medium lacking G418 and hygromycin at 15,000 cells/20 μL/well in Greiner 384-well black-walled, tissue culture (TC)-treated, clear-bottom plates (VWR). Cells were incubated overnight at 37° C. and 5% C02. The next day, cells were washed using an ELX 405 (BioTek) with four washes (80 μL) of assay buffer then aspirated to 20 μL. Next, 20 μL of 16 μM Fluo-4/acetoxymethyl ester (Invitrogen, Carlsbad, CA) prepared as a 2.3 mM stock in DMSO and mixed in a 1:1 ratio with 10% (w/v) Pluronic F-127 and diluted in assay buffer was added to the wells and the cell plates were incubated for 50 min at 37° C. and 5% C02. Dye was removed by washing with the ELX 405 (four 80 μL washes of assay buffer) then aspirated to 20 μL. Compound master plates were formatted in an 11 point CRC format (1:3 dilutions) in 100% DMSO with a starting concentration of 10 mM using the BRAVO liquid handler (Agilent). Test compound CRCs were then transferred to daughter plates (240 nL) using the Echo acoustic plate reformatter (Labcyte, Sunnyvale, CA) and then diluted into assay buffer (40 μL) to a 2× stock using a Thermo Fisher Combi (Thermo Fisher Scientific, Waltham, MA).
(§3) Calcium flux was measured using the Functional Drug Screening System (FDSS) 6000 (Hamamatsu Corporation, Tokyo, Japan) as an increase in the fluorescent static ratio. Compounds were applied to cells (20 μL, 2×) using the automated system of the FDSS 6000 at 4 s into the 300 s protocol and the data were collected at 1 Hz. At 144 s into the 300 s protocol, 10 μL of an EC20 concentration of the muscarinic receptor agonist acetylcholine was added (5×), followed by the addition of 12 μL of an EC80 concentration of acetylcholine at the 230 s time point (5×). Agonist activity was analyzed as a concentration-dependent increase in calcium mobilization upon compound addition. Emax values for agonist activity are expressed relative to the maximum for acetylcholine. Positive allosteric modulator activity was analyzed as a concentration-dependent increase in the EC20 acetylcholine response. Antagonist activity was analyzed as a concentration-dependent decrease in the EC80 acetylcholine response. Concentration-response curves were generated using a four-parameter logistical equation in XLfit curve fitting software (IDBS, Bridgewater, NJ) for Excel (Microsoft, Redmond, WA) or Prism (GraphPad Software, Inc., San Diego, CA).
A general note: A change in cytosolic calcium serves as a functional read-out for many receptors and channels.

The target in experiment [2] is T1, human mAChR M1. The experiment is described as follows: mAChR M1 cell-based functional assay (calcium mobilization), PAM mode: increase in the EC20 acetylcholine response.
Description: as §1, §2
as §3, with “CA). […]” for “CA).”

Molecules are shown by their SMILES. A value given as a limit tells only on which side of the number the result lay.

One may read the EC50 as the concentration that produces a half-maximal response. The Emax is the maximal effect, on the per cent scale that the assay sets. Consider `[2H]C1([2H])c2ncccc2C(=O)N1Cc1ccc(-c2ccc(OCCOC)c3nn(C)cc23)cc1F` [Compound 116, 6-(2-fluoro-4-(7-(2-methoxyethoxy)-2-methyl-2H-indazol-4-yl)benzyl)-6,7-dihydro-5H-pyrrolo[3,4-b]pyridin-5-one-7,7-d2], for which, at human mAChR M1 [1], the EC50 turned out to be 9.43 µM and the Emax worked out at 21%. Further, on human mAChR M1 [2], the EC50 was determined as 0.287 µM and the Emax stood at 72%.

On to `[2H]C1([2H])c2ncccc2C(=O)N1Cc1ccc(-c2ccc(OC[C@@H](C)OC)c3nn(C)cc23)cc1F` [Compound 175, (R)-6-(2-fluoro-4-(7-(2-methoxypropoxy)-2-methyl-2H-indazol-4-yl)benzyl)-6,7-dihydro-5H-pyrrolo[3,4-b]pyridin-5-one-7,7-d2], for which, at human mAChR M1 [1], the EC50 was no less than 10 µM and the Emax was determined as 12%. On human mAChR M1 [2], the EC50 came to 0.837 µM and the Emax amounted to 86%.

In the case of `[2H]C1([2H])c2ncccc2C(=O)N1Cc1c(C)cc(-c2ccc(C)c3nn(C)cc23)cc1F` [Compound 197, 6-(4-(2,7-dimethyl-2H-indazol-4-yl)-2-fluoro-6-methylbenzyl)-6,7-dihydro-5H-pyrrolo[3,4-b]pyridin-5-one-7,7-d2], on human mAChR M1 [1], the EC50 is no less than 10 µM and the Emax amounted to 37%. In addition, on human mAChR M1 [2], the 50% effective concentration (EC50) was determined as 0.433 µM and the Emax was 85%.

In the case of `[2H]C1([2H])c2ncccc2C(=O)N1Cc1c(F)cc(-c2ccc(C(F)(F)F)c3nn(C)cc23)cc1OCC(C)C` [Compound 216, 6-(2-fluoro-6-isobutoxy-4-(2-methyl-7-(trifluoromethyl)-2H-indazol-4-yl)benzyl)-6,7-dihydro-5H-pyrrolo[3,4-b]pyridin-5-one-7,7-d2], on human mAChR M1 [1], the “Agonist Activity Human M1 EC50” value is “Inactive” and the Emax came out at 2%. Also, on human mAChR M1 [2], the EC50 amounted to 3.18 µM and the Emax turned out to be 83%.

As to `[2H]C1([2H])c2ncccc2C(=O)N1Cc1c(F)cc(-c2cccc3nn(C)cc23)cc1C1CCCC1` [Compound 223, 6-(2-cyclopentyl-6-fluoro-4-(2-methyl-2H-indazol-4-yl)benzyl)-6,7-dihydro-5H-pyrrolo[3,4-b]pyridin-5-one-7,7-d2], at human mAChR M1 [1], the “Agonist Activity Human M1 EC50” value was “Inactive” and the Emax was determined as 1%. Besides, on human mAChR M1 [2], the EC50 worked out at 5.24 µM and the maximum response (Emax) was found to be 59%.

`[2H]C1([2H])c2ncccc2C(=O)N1Cc1c(F)cc(-c2ccc(SC)c3nn(C)cc23)cc1F` [Compound 181, 6-(2,6-difluoro-4-(2-methyl-7-(methylthio)-2H-indazol-4-yl)benzyl)-6,7-dihydro-5H-pyrrolo[3,4-b]pyridin-5-one-7,7-d2]: at human mAChR M1 [1], the “Agonist Activity Human M1 EC50” value was “Inactive” and the Emax was 9%. Moreover, at human mAChR M1 [2], the EC50 turned out to be 0.475 µM and the Emax was determined as 82%.

With `[2H]C1([2H])c2ncccc2C(=O)N1Cc1c(F)cc(-c2ccc(O[C@@H](C)COC)c3nn(C)cc23)cc1F` [Compound 171, (S)-6-(2,6-difluoro-4-(7-((1-methoxypropan-2-yl)oxy)-2-methyl-2H-indazol-4-yl)benzyl)-6,7-dihydro-5H-pyrrolo[3,4-b]pyridin-5-one-7,7-d2], on human mAChR M1 [1], the EC50 is no less than 10 µM and the Emax turned out to be 31%. In addition, at human mAChR M1 [2], the EC50 amounted to 0.337 µM and the Emax stood at 81%.

For `[2H]C1([2H])c2ncccc2C(=O)N1Cc1c(C)cc(-c2cccc3nn(C([2H])([2H])[2H])cc23)cc1F` (single isomer, unassigned) [Compound 156, 6-(2-Fluoro-6-methyl-4-(2-(methyl-d3)-2H-indazol-4-yl)benzyl)-6,7-dihydro-5H-pyrrolo[3,4-b]pyridin-5-one-7,7-d2], on human mAChR M1 [1], the EC50 was found to be 8.16 µM and the Emax came to 33%. Moreover, on human mAChR M1 [2], the EC50 is 0.194 µM and the Emax came to 85%.

Consider `[2H]C1([2H])c2ncccc2C(=O)N1Cc1c(C)cc(-c2ccc(C)c3nn(C([2H])([2H])[2H])cc23)cc1F` [Compound 157, 6-(2-fluoro-6-methyl-4-(7-methyl-2-(methyl-d3)-2H-indazol-4-yl)benzyl)-6,7-dihydro-5H-pyrrolo[3,4-b]pyridin-5-one-7,7-d2], for which, on human mAChR M1 [1], the EC50 is no less than 10 µM and the Emax turned out to be 16%. Further, on human mAChR M1 [2], the EC50 was found to be 0.456 µM and the Emax was 81%.

On to `[2H]C1([2H])c2ncccc2C(=O)N1Cc1c(F)cc(-c2cccc3nn(C([2H])([2H])[2H])cc23)cc1C1CCCC1` [Compound 224, 6-(2-cyclopentyl-6-fluoro-4-(2-(methyl-d3)-2H-indazol-4-yl)benzyl)-6,7-dihydro-5H-pyrrolo[3,4-b]pyridin-5-one-7,7-d2], for which, on human mAChR M1 [1], the “Agonist Activity Human M1 EC50” value is listed as “Inactive” and the Emax was found to be 1%. Moreover, at human mAChR M1 [2], the EC50 was 6.46 µM and the Emax is 62%.

As to `[2H]C1([2H])c2ncccc2C(=O)N1Cc1c(F)cc(-c2ccc(OCC3CN(C(=O)OC(C)(C)C)C3)c3nn(C)cc23)cc1F` [Compound 179, tert-butyl 3-(((4-(3,5-difluoro-4-((5-oxo-5,7-dihydro-6H-pyrrolo[3,4-b]pyridin-6-yl-7,7-d2)methyl)phenyl)-2-methyl-2H-indazol-7-yl)oxy)methyl)azetidine-1-carboxylate], at human mAChR M1 [1], the “Agonist Activity Human M1 EC50” value is “Inactive” and the maximal response (Emax) stood at 1%. Moreover, at human mAChR M1 [2], the EC50 is 1.12 µM and the Emax came out at 55%.

In the case of `[2H]C1([2H])c2ncccc2C(=O)N1Cc1c(F)cc(-c2ccc(OC3CC3)c3nn(C)cc23)cc1F` [Compound 124, 6-(4-(7-cyclopropoxy-2-methyl-2H-indazol-4-yl)-2,6-difluorobenzyl)-6,7-dihydro-5H-pyrrolo[3,4-b]pyridin-5-one-7,7-d2], on human mAChR M1 [1], the EC50 turned out to be 8.27 µM and the Emax is 32%. On human mAChR M1 [2], the EC50 amounted to 0.243 µM and the Emax turned out to be 74%.

For the origin of these results see patent US20240228489A1, “POSITIVE ALLOSTERIC MODULATORS OF THE MUSCARINIC ACETYLCHOLINE RECEPTOR M1” (Vanderbilt University, priority 2021, published 2024).
